In ChEMBL document CHEMBL3045059, “Efficacy of ketoenols on insecticide resistant field populations of two-spotted spider mite Tetranychus urticae and sweet potato whitefly Bemisia tabaci from Greece” (2012):
Values after ≈ are worked out from the molar mass of the structure shown.

How the values were obtained:
Assay type in all cases: functional
Bemisia tabaci [1] = assay: Acaricidal activity against second-instar nymph stage of Bemisia tabaci (sweet potato whitefly) greenhouse population GR188 in cotton leaves assessed as mortality incubated for 5 secs measured after 10 to 12 days
Bemisia tabaci [2] = assay: Resistance ratio, ratio of imidacloprid LC50 to compound LC50 for second-instar nymph stage of Bemisia tabaci (sweet potato whitefly) greenhouse population GR165
Bemisia tabaci [3] = assay: Acaricidal activity against second-instar nymph stage of Bemisia tabaci (sweet potato whitefly) laboratory strain GRMAL-RN in cotton leaves assessed as mortality incubated for 5 secs measured after 10 to 12 days
Bemisia tabaci [4] = assay: Acaricidal activity against second-instar nymph stage of Bemisia tabaci (sweet potato whitefly) field population GR157 in cotton leaves assessed as mortality incubated for 5 secs measured after 10 to 12 days
Bemisia tabaci [5] = assay: (§1) Acaricidal activity against second-instar nymph stage of Bemisia tabaci (sweet potato whitefly) greenhouse population GR164 in cotton leaves assessed as survival at 30 mg/l at the last selection cycle of four generations incubated for 5 secs measured after 10 to 12 days by applying constant selection pressure under laboratory conditions
Bemisia tabaci [6] = assay: Resistance ratio, ratio of alpha-cypermethrin LC50 to compound LC50 for second-instar nymph stage of Bemisia tabaci (sweet potato whitefly) field population GR163
Bemisia tabaci [7] = assay: Resistance ratio, ratio of imidacloprid LC50 to compound LC50 for second-instar nymph stage of Bemisia tabaci (sweet potato whitefly) greenhouse population GR258
Bemisia tabaci [8] = assay: Resistance ratio, ratio of imidacloprid LC50 to compound LC50 for second-instar nymph stage of Bemisia tabaci (sweet potato whitefly) greenhouse population GR191
Bemisia tabaci [9] = assay: Resistance ratio, ratio of imidacloprid LC50 to compound LC50 for second-instar nymph stage of Bemisia tabaci (sweet potato whitefly) greenhouse population GR187
Bemisia tabaci [10] = assay: Resistance ratio, ratio of imidacloprid LC50 to compound LC50 for second-instar nymph stage of Bemisia tabaci (sweet potato whitefly) field population GR163
Bemisia tabaci [11] = assay: Resistance ratio, ratio of alpha-cypermethrin LC50 to compound LC50 for second-instar nymph stage of Bemisia tabaci (sweet potato whitefly) greenhouse population GR191
Bemisia tabaci [12] = assay: Acaricidal activity against second-instar nymph stage of Bemisia tabaci (sweet potato whitefly) greenhouse population GR165 in cotton leaves assessed as mortality incubated for 5 secs measured after 10 to 12 days
Bemisia tabaci [13] = assay: Acaricidal activity against second-instar nymph stage of Bemisia tabaci (sweet potato whitefly) greenhouse population GR192 in cotton leaves assessed as mortality incubated for 5 secs measured after 10 to 12 days
Bemisia tabaci [14] = assay: Resistance ratio, ratio of alpha-cypermethrin LC50 to compound LC50 for second-instar nymph stage of Bemisia tabaci (sweet potato whitefly) greenhouse population GR164
Bemisia tabaci [15] = assay: Resistance ratio, ratio of imidacloprid LC50 to compound LC50 for second-instar nymph stage of Bemisia tabaci (sweet potato whitefly) field population GR259
Bemisia tabaci [16] = assay: Acaricidal activity against second-instar nymph stage of Bemisia tabaci (sweet potato whitefly) greenhouse population GR187 in cotton leaves assessed as mortality incubated for 5 secs measured after 10 to 12 days
Bemisia tabaci [17] = assay: Resistance ratio, ratio of alpha-cypermethrin LC50 to compound LC50 for second-instar nymph stage of Bemisia tabaci (sweet potato whitefly) greenhouse population GR192
Bemisia tabaci [18] = assay: Acaricidal activity against second-instar nymph stage of Bemisia tabaci (sweet potato whitefly) laboratory strain GRMAL-RP in cotton leaves assessed as mortality incubated for 5 secs measured after 10 to 12 days
Bemisia tabaci [19] = assay: Resistance ratio, ratio of imidacloprid LC50 to compound LC50 for second-instar nymph stage of Bemisia tabaci (sweet potato whitefly) greenhouse population GR192
Bemisia tabaci [20] = assay: Acaricidal activity against second-instar nymph stage of Bemisia tabaci (sweet potato whitefly) field population GR259 in cotton leaves assessed as mortality incubated for 5 secs measured after 10 to 12 days
Bemisia tabaci [21] = assay: Acaricidal activity against second-instar nymph stage of Bemisia tabaci (sweet potato whitefly) greenhouse population GR194 in cotton leaves assessed as mortality incubated for 5 secs measured after 10 to 12 days
Bemisia tabaci [22] = assay: Resistance ratio, ratio of alpha-cypermethrin LC50 to compound LC50 for second-instar nymph stage of Bemisia tabaci (sweet potato whitefly) laboratory strain GRMAL-RP
Bemisia tabaci [23] = assay: Resistance ratio, ratio of imidacloprid LC50 to compound LC50 for second-instar nymph stage of Bemisia tabaci (sweet potato whitefly) laboratory strain GRMAL-RN
Bemisia tabaci [24] = assay: Resistance ratio, ratio of alpha-cypermethrin LC50 to compound LC50 for second-instar nymph stage of Bemisia tabaci (sweet potato whitefly) greenhouse population GR258
Bemisia tabaci [25] = assay: Resistance ratio, ratio of alpha-cypermethrin LC50 to compound LC50 for second-instar nymph stage of Bemisia tabaci (sweet potato whitefly) greenhouse population GR188
Bemisia tabaci [26] = assay: Acaricidal activity against second-instar nymph stage of Bemisia tabaci (sweet potato whitefly) greenhouse population GR258 in cotton leaves assessed as mortality incubated for 5 secs measured after 10 to 12 days
Bemisia tabaci [27] = assay: Acaricidal activity against second-instar nymph stage of Bemisia tabaci (sweet potato whitefly) greenhouse population GR191 in cotton leaves assessed as mortality incubated for 5 secs measured after 10 to 12 days
Bemisia tabaci [28] = assay: Resistance ratio, ratio of imidacloprid LC50 to compound LC50 for second-instar nymph stage of Bemisia tabaci (sweet potato whitefly) greenhouse population GR188
Bemisia tabaci [29] = assay: Resistance ratio, ratio of imidacloprid LC50 to compound LC50 for second-instar nymph stage of Bemisia tabaci (sweet potato whitefly) greenhouse population GR164
Bemisia tabaci [30] = assay: Resistance ratio, ratio of alpha-cypermethrin LC50 to compound LC50 for second-instar nymph stage of Bemisia tabaci (sweet potato whitefly) field population GR157
Bemisia tabaci [31] = assay: Resistance ratio, ratio of imidacloprid LC50 to compound LC50 for second-instar nymph stage of Bemisia tabaci (sweet potato whitefly) field population GR157
Bemisia tabaci [32] = assay: Resistance ratio, ratio of alpha-cypermethrin LC50 to compound LC50 for second-instar nymph stage of Bemisia tabaci (sweet potato whitefly) greenhouse population GR194
Bemisia tabaci [33] = assay: Resistance ratio, ratio of alpha-cypermethrin LC50 to compound LC50 for second-instar nymph stage of Bemisia tabaci (sweet potato whitefly) greenhouse population GR187
Bemisia tabaci [34] = assay: Resistance ratio, ratio of imidacloprid LC50 to compound LC50 for second-instar nymph stage of Bemisia tabaci (sweet potato whitefly) greenhouse population GR194
Bemisia tabaci [35] = assay: Resistance ratio, ratio of alpha-cypermethrin LC50 to compound LC50 for second-instar nymph stage of Bemisia tabaci (sweet potato whitefly) field population GR259
Bemisia tabaci [36] = assay: Resistance ratio, ratio of alpha-cypermethrin LC50 to compound LC50 for second-instar nymph stage of Bemisia tabaci (sweet potato whitefly) greenhouse population GR165
Bemisia tabaci [37] = assay: as §1, with “survival of the parent population” for “survival”, “mg/l” for “mg/l at the last selection cycle of four generations”
Bemisia tabaci [38] = assay: Acaricidal activity against second-instar nymph stage of Bemisia tabaci (sweet potato whitefly) greenhouse population GR164 in cotton leaves assessed as mortality incubated for 5 secs measured after 10 to 12 days
Bemisia tabaci [39] = assay: Acaricidal activity against second-instar nymph stage of Bemisia tabaci (sweet potato whitefly) field population GR163 in cotton leaves assessed as mortality incubated for 5 secs measured after 10 to 12 days

Cc1cc(C)c(C2=C(OC(=O)CC(C)(C)C)C3(CCCC3)OC2=O)c(C)c1 [SPIROMESIFEN]
LC95 (Bemisia tabaci [1]): 21.41 mg/L (≈ 57.8 µM) | LC50 (Bemisia tabaci [1]; Bemisia tabaci, GR188, Nymph stage): 6.1 mg/L (≈ 16.5 µM) | RatioLC50 (Bemisia tabaci [2]): 73 | LC95 (Bemisia tabaci [3]): 47.61 mg/L (≈ 129 µM) | LC50 (Bemisia tabaci [3]; Bemisia tabaci, GRMAL-RN, Nymph stage): 6.7 mg/L (≈ 18.1 µM) | LC95 (Bemisia tabaci [4]): 139.9 mg/L (≈ 378 µM) | LC50 (Bemisia tabaci [4]; Bemisia tabaci, GR157, Nymph stage): 5.4 mg/L (≈ 14.6 µM) | survival at 30 µg/mL (Bemisia tabaci [5]): 13% | RatioLC50 (Bemisia tabaci [6]): 478 | RatioLC50 (Bemisia tabaci [7]): 369 | RatioLC50 (Bemisia tabaci [8]): 120 | RatioLC50 (Bemisia tabaci [9]): 94 | RatioLC50 (Bemisia tabaci [10]): 46 | RatioLC50 (Bemisia tabaci [11]): 179 | LC95 (Bemisia tabaci [12]): 37.16 mg/L (≈ 100 µM) | LC50 (Bemisia tabaci [12]; Bemisia tabaci, GR165, Nymph stage): 4.5 mg/L (≈ 12.1 µM) | LC95 (Bemisia tabaci [13]): 44.79 mg/L (≈ 121 µM) | LC50 (Bemisia tabaci [13]; Bemisia tabaci, GR192, Nymph stage): 14 mg/L (≈ 37.8 µM) | RatioLC50 (Bemisia tabaci [14]): 42 | RatioLC50 (Bemisia tabaci [15]): 323 | LC95 (Bemisia tabaci [16]): 24.95 mg/L (≈ 67.3 µM) | LC50 (Bemisia tabaci [16]; Bemisia tabaci, GR187, Nymph stage): 4.6 mg/L (≈ 12.4 µM) | RatioLC50 (Bemisia tabaci [17]): 179 | LC95 (Bemisia tabaci [18]): 50.31 mg/L (≈ 136 µM) | LC50 (Bemisia tabaci [18]; Bemisia tabaci, GRMAL-RP, Nymph stage): 1.1 mg/L (≈ 2.97 µM) | RatioLC50 (Bemisia tabaci [19]): 323 | LC95 (Bemisia tabaci [20]): 30.74 mg/L (≈ 83 µM) | LC50 (Bemisia tabaci [20]; Bemisia tabaci, GR259, Nymph stage): 7.9 mg/L (≈ 21.3 µM) | LC95 (Bemisia tabaci [21]): 49.23 mg/L (≈ 133 µM) | LC50 (Bemisia tabaci [21]; Bemisia tabaci, GR194, Nymph stage): 6.4 mg/L (≈ 17.3 µM) | RatioLC50 (Bemisia tabaci [22]): >621 | RatioLC50 (Bemisia tabaci [23]): 958 | RatioLC50 (Bemisia tabaci [24]): 1190 | RatioLC50 (Bemisia tabaci [25]): 105 | LC95 (Bemisia tabaci [26]): 49.19 mg/L (≈ 133 µM) | LC50 (Bemisia tabaci [26]; Bemisia tabaci, GR258, Nymph stage): 12 mg/L (≈ 32.4 µM) | LC95 (Bemisia tabaci [27]): 18.62 mg/L (≈ 50.3 µM) | LC50 (Bemisia tabaci [27]; Bemisia tabaci, GR191, Nymph stage): 5.1 mg/L (≈ 13.8 µM) | RatioLC50 (Bemisia tabaci [28]): 353 | RatioLC50 (Bemisia tabaci [29]): 7 | RatioLC50 (Bemisia tabaci [30]): 426 | RatioLC50 (Bemisia tabaci [31]): 88 | RatioLC50 (Bemisia tabaci [32]): 142 | RatioLC50 (Bemisia tabaci [33]): 101 | RatioLC50 (Bemisia tabaci [34]): 247 | RatioLC50 (Bemisia tabaci [35]): 741 | RatioLC50 (Bemisia tabaci [36]): 256 | survival at 30 µg/mL (Bemisia tabaci [37]): 27% | LC95 (Bemisia tabaci [38]): 69.44 mg/L (≈ 187 µM) | LC50 (Bemisia tabaci [38]; Bemisia tabaci, GR164, Nymph stage): 12 mg/L (≈ 32.4 µM) | LC95 (Bemisia tabaci [39]): 85.08 mg/L (≈ 230 µM) | LC50 (Bemisia tabaci [39]; Bemisia tabaci, GR163, Nymph stage): 11.6 mg/L (≈ 31.3 µM)
